Test results from patent publication US20100035871A1, “BENZOXAZINE DERIVATIVES AND USES THEREOF” (priority 2006, published 2010).
Counter-ions that a name gives are not always drawn.

melting point	Structure (SMILES)
135 to 136 °C	NCC1CNc2cc(F)cc(-c3c(Cl)cccc3Cl)c2O1 (racemic) (as salt: hydrochloride) [Example 10, 1-[8-(2,6-Dichlorophenyl)-6-fluoro-3,4-dihydro-2H-1,4-benzoxazin-2-yl]methanamine]
80 °C (dec.)	CN1CC(CN)Oc2c(-c3ccccc3Cl)cccc21 (racemic) (as salt: hydrochloride) [Example 11, 1-[8-(2-Chlorophenyl)-4-methyl-3,4-dihydro-2H-1,4-benzoxazin-2-yl]methanamine]
90 °C (dec.)	NCC1CN(CC2CC2)c2cccc(-c3ccccc3Cl)c2O1 (racemic) (as salt: hydrochloride) [Example 12, 1-[8-(2-Chlorophenyl)-4-(cyclopropylmethyl)-3,4-dihydro-2H-1,4-benzoxazin-2-yl]methanamine]
90 °C (dec.)	CN1CC(CN)Oc2c(-c3cc(Cl)ccc3Cl)cccc21 (racemic) (as salt: hydrochloride) [Example 13, 1-[8-(2,5-Dichlorophenyl)-4-methyl-3,4-dihydro-2H-1,4-benzoxazin-2-yl]methanamine]
130 °C (dec.)	NCC1CNc2cccc(-c3cc(Cl)ccc3Cl)c2O1 (racemic) (as salt: hydrochloride) [Example 14, 1-[8-(2,5-Dichlorophenyl)-3,4-dihydro-2H-1,4-benzoxazin-2-yl]methanamine]
158 to 161 °C	NCC1CNc2cccc(-c3ccc(Cl)cc3Cl)c2O1 (racemic) (as salt: hydrochloride) [Example 15, 1-[8-(2,4-Dichlorophenyl)-3,4-dihydro-2H-1,4-benzoxazin-2-yl]methanamine]
140 °C (dec.)	NCC1CNc2cccc(-c3ccccc3Cl)c2O1 (racemic) (as salt: hydrochloride) [Example 16, 1-[8-(2-Chlorophenyl)-3,4-dihydro-2H-1,4-benzoxazin-2-yl]methanamine]
195 to 197 °C	Cc1ccccc1-c1cccc2c1OC(CN)CN2 (racemic) (as salt: hydrochloride) [Example 17, 1-[8-(2-Methylphenyl)-3,4-dihydro-2H-1,4-benzoxazin-2-yl]methanamine]
205 to 207 °C	NCC1CNc2cccc(-c3ccc(Cl)cc3C(F)(F)F)c2O1 (racemic) (as salt: hydrochloride) [Example 18, 1-{8-[4-Chloro-2-(trifluoromethyl)phenyl]-3,4-dihydro-2H-1,4-benzoxazin-2-yl}methanamine]
105 to 106 °C	CCN1CC(CN)Oc2c(-c3ccccc3Cl)cccc21 (racemic) (as salt: hydrochloride) [Example 19, 1-[8-(2-Chlorophenyl)-4-ethyl-3,4-dihydro-2H-1,4-benzoxazin-2-yl]methanamine]
192 to 194 °C	Cc1cc(Cl)ccc1-c1cccc2c1OC(CN)CN2 (racemic) (as salt: hydrochloride) [Example 20, 1-[8-(4-chloro-2-methylphenyl)-3,4-dihydro-2H-1,4-benzoxazin-2-yl]methanamine]
83 to 85 °C	CCCN1CC(CN)Oc2c(-c3ccccc3Cl)cccc21 (racemic) (as salt: hydrochloride) [Example 21, 1-[8-(2-Chlorophenyl)-4-propyl-3,4-dihydro-2H-1,4-benzoxazin-2-yl]methanamine]
185 to 187 °C	NCC1CNc2cccc(-c3ccccc3C(F)(F)F)c2O1 (racemic) (as salt: hydrochloride) [Example 22, 1-{8-[2-(Trifluoromethyl)phenyl]-3,4-dihydro-2H-1,4-benzoxazin-2-yl}methanamine]
192 to 194 °C	NCC1CNc2cccc(-c3ccc(C(F)(F)F)cc3C(F)(F)F)c2O1 (racemic) (as salt: hydrochloride) [Example 23, 1-{8-[2,4-Bis(trifluoromethyl)phenyl]-3,4-dihydro-2H-1,4-benzoxazin-2-yl}methanamine]
230 to 232 °C	COc1ccc(-c2cccc3c2OC(CN)CN3)c(C)c1 (racemic) (as salt: hydrochloride) [Example 24, 1-[8-(4-Methoxy-2-methylphenyl)-3,4-dihydro-2H-1,4-benzoxazin-2-yl]methanamine]
102 °C (dec.)	NCC1COc2cc(Cl)cc(-c3ccccc3C(F)(F)F)c2N1 (racemic) (as salt: hydrochloride) [Example 25, 1-{7-Chloro-5-[2-(trifluoromethyl)phenyl]-3,4-dihydro-2H-1,4-benzoxazin-3-yl}methanamine]
101 °C (dec.)	COc1ccc(-c2cc(Cl)cc3c2NC(CN)CO3)cc1 (racemic) (as salt: hydrochloride) [Example 26, 1-[7-Chloro-5-(4-methoxyphenyl)-3,4-dihydro-2H-1,4-benzoxazin-3-yl]methanamine]
98 °C (dec.)	COc1ccc(-c2cc(Cl)cc3c2NC(CN)CO3)c(C)c1 (racemic) (as salt: hydrochloride) [Example 27, 1-[7-chloro-5-(4-methoxy-2-methylphenyl)-3,4-dihydro-2H-1,4-benzoxazin-3-yl]methanamine]

melting point	Structure (SMILES)
106 °C (dec.)	COc1ccc(-c2cc(Cl)cc3c2N(C)C(CN)CO3)c(C)c1 (racemic) (as salt: hydrochloride) [Example 28, 1-[7-chloro-5-(4-methoxy-2-methylphenyl)-4-methyl-3,4-dihydro-2H-1,4-benzoxazin-3-yl]methanamine]
92 °C (dec.)	NCC1COc2cc(Cl)cc(-c3ccccc3)c2N1 (racemic) (as salt: hydrochloride) [Example 29, 1-(7-chloro-5-phenyl-3,4-dihydro-2H-1,4-benzoxazin-3-yl)methanamine]
86 °C (dec.)	Cc1ccccc1-c1cc(Cl)cc2c1NC(CN)CO2 (racemic) (as salt: hydrochloride) [Example 30, 1-[7-chloro-5-(2-methylphenyl)-3,4-dihydro-2H-1,4-benzoxazin-3-yl]methanamine]
98 °C (dec.)	Cc1ccc(-c2cc(Cl)cc3c2NC(CN)CO3)c(C(F)(F)F)c1 (racemic) (as salt: hydrochloride) [Example 31, 1-{7-chloro-5-[4-methyl-2-(trifluoromethyl)phenyl]-3,4-dihydro-2H-1,4-benzoxazin-3-yl}methanamine]
105 °C (dec.)	COc1ccc(-c2cc(Cl)cc3c2NC(CN)CO3)c(Cl)c1 (racemic) (as salt: hydrochloride) [Example 32, 1-[7-chloro-5-(2-chloro-4-methoxyphenyl)-3,4-dihydro-2H-1,4-benzoxazin-3-yl]methanamine]
95 °C (dec.)	NCC1COc2cc(Cl)cc(-c3ccccc3F)c2N1 (racemic) (as salt: hydrochloride) [Example 33, 1-[7-chloro-5-(2-fluorophenyl)-3,4-dihydro-2H-1,4-benzoxazin-3-yl]methanamine]
100 °C (dec.)	COc1ccccc1-c1cc(Cl)cc2c1NC(CN)CO2 (racemic) (as salt: hydrochloride) [Example 34, 1-[7-chloro-5-(2-methoxyphenyl)-3,4-dihydro-2H-1,4-benzoxazin-3-yl]methanamine]
102 °C (dec.)	Cc1cc(Cl)ccc1-c1cc(Cl)cc2c1NC(CN)CO2 (racemic) (as salt: hydrochloride) [Example 35, 1-[7-chloro-5-(4-chloro-2-methylphenyl)-3,4-dihydro-2H-1,4-benzoxazin-3-yl]methanamine]
108 °C (dec.)	NCC1COc2cc(Cl)cc(-c3ccccc3Cl)c2N1 (racemic) (as salt: hydrochloride) [Example 36, 1-[7-chloro-5-(2-chlorophenyl)-3,4-dihydro-2H-1,4-benzoxazin-3-yl]methanamine]
95 °C (dec.)	NCC1COc2cc(Cl)cc(-c3ccc(Cl)cc3C(F)(F)F)c2N1 (racemic) (as salt: hydrochloride) [Example 37, 1-{7-chloro-5-[4-chloro-2-(trifluoromethyl)phenyl]-3,4-dihydro-2H-1,4-benzoxazin-3-yl}methanamine]
98 °C (dec.)	NCC1COc2cc(Cl)cc(-c3ccc(C(F)(F)F)cc3C(F)(F)F)c2N1 (racemic) (as salt: hydrochloride) [Example 38, 1-{5-[2,4-bis(trifluoromethyl)phenyl]-7-chloro-3,4-dihydro-2H-1,4-benzoxazin-3-yl}methanamine]
99 °C (dec.)	NCC1COc2cc(F)cc(-c3ccccc3C(F)(F)F)c2N1 (racemic) (as salt: hydrochloride) [Example 55, 1-{7-fluoro-5-[2-(trifluoromethyl)phenyl]-3,4-dihydro-2H-1,4-benzoxazin-3-yl}methanamine]
82 °C (dec.)	COc1ccc(-c2cc(F)cc3c2NC(CN)CO3)c(C)c1 (racemic) (as salt: hydrochloride) [Example 56, 1-[7-fluoro-5-(4-methoxy-2-methylphenyl)-3,4-dihydro-2H-1,4-benzoxazin-3-yl]methanamine]
86 °C (dec.)	NCC1COc2cc(F)cc(-c3ccccc3Cl)c2N1 (racemic) (as salt: hydrochloride) [Example 57, 1-[5-(2-chlorophenyl)-7-fluoro-3,4-dihydro-2H-1,4-benzoxazin-3-yl]methanamine]
78 °C (dec.)	Cc1ccccc1-c1cc(F)cc2c1NC(CN)CO2 (racemic) (as salt: hydrochloride) [Example 58, 1-[7-fluoro-5-(2-methylphenyl)-3,4-dihydro-2H-1,4-benzoxazin-3-yl]methanamine]
84 °C (dec.)	COc1ccc(-c2cc(F)cc3c2NC(CN)CO3)c(Cl)c1 (racemic) (as salt: hydrochloride) [Example 59, 1-[5-(2-chloro-4-methoxyphenyl)-7-fluoro-3,4-dihydro-2H-1,4-benzoxazin-3-yl]methanamine]
86 °C (dec.)	Cc1ccc(-c2cc(F)cc3c2NC(CN)CO3)c(C(F)(F)F)c1 (racemic) (as salt: hydrochloride) [Example 60, 1-{7-fluoro-5-[4-methyl-2-(trifluoromethyl)phenyl]-3,4-dihydro-2H-1,4-benzoxazin-3-yl}methanamine]
